# Measured values as given in patent publication US20160340324A1, “METHODS AND COMPOSITIONS FOR TREATING CANCER” (Sanford-Burnham Medical Research Institute, priority 2013, published 2016).
# Tests used:
# [1] = tested on: cancer cells; conditions: literature (Weggen 2001; Yamamoto 1999; Zhang 2000); cited from earlier work
# [2] = tested on: A549 cells; test: PARP cleavage (apoptosis) with or without TNFα, immunoblotting; type: cell-based, human; conditions: 4 h; for PARP cleavage, combination with TNFα: 40 μM compound plus TNFα 10 ng/mL
# [3] = molecular target: T1, human RXRα-LBD (Homo sapiens, UniProt P19793); test: Ligand-binding competition assay with [3H]9-cis-RA; conditions: [3H]-9-cis-RA 7.5 nM
# T1 sequence (P19793 223-462): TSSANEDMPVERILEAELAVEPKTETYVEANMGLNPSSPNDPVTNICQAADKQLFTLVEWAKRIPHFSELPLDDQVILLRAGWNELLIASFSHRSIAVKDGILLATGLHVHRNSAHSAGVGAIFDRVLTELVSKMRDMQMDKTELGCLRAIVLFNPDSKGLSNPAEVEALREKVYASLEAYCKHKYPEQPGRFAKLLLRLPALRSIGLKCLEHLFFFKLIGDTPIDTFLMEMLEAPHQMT
# [4] = tested on: HepG2 tumor xenografts; test: HepG2 tumor xenografts in nude mice; type: in vivo; conditions: for apparent toxic effects such as loss of body weight: 20 mg/kg daily for 12 days, body weight every 3 days; for reduction of tumor weight: 20 mg/kg intraperitoneally once a day, 12-day treatment
# Method: FIGS. 4A-4F depict inhibition of HepG2 tumor growth in animals. FIG. 4A is a photograph of tumors. FIG. 4B is a graph of tumor volume. FIG. 4C is a graph of tumor weight. […] Tumors were removed and measured. Tumor sizes and weights in control, K-80003 and K-8008-treated mice were compared. FIG. 4D is a Western blot. Lysates prepared from three tumors treated with vehicle or K-8008 were analyzed by Western blotting assay for p-AKT expression. FIG. 4E is a series of photomicrographs. H&E staining and TUNEL assay. Tumor sections were stained for H&E or TUNEL by immunohistochemistry. […]. FIG. 4F is a graph of body weight. […]. Body weight was measured every three days. Each point represents the mean±standard deviation of six mice. The differences between the compound treated group and control group are not significant (P>5%).
# […]. Nude mice (BALB/c, SPF grade. 16-18 g, 4-5-week old) were housed at 28° C. in a laminar flow under sterilized conditions. Mice were injected subcutaneously with 100 μL HepG2 cells ([…]). […]. Body weight and tumor size were measured every 3 days. Mice were sacrificed after 12-day drug treatment and the tumors removed for various assessments.
# Paraffin wax embedded tumors were cut into 5 |iM-thick sections. These sections were deparaffinized and stained with hematoxylin and eosin (H&E) according to the standard protocol. Tumor sections of HepG2 xenografts were also stained with TUNEL for assessing spontaneous apoptosis according to the manufacturer's instructions (In situ Cell Death Detection Kit; Roche). The images were taken under a fluorescent microscope (Carl Zeiss).
# [5] = molecular target: T2, RXRα-LBD (Homo sapiens, UniProt P19793); test: Mammalian one hybrid: Gal4-RXRα-LBD chimera (pBind-RXRα-LBD) and pG5luc reporter in HCT-116 cells; type: cell-based; conditions: 9-cis-RA 10^-7 M, BI-1003 1 μM, K-8008 and K-8012 50 μM
# T2 construct: expressed in transfected cells; host or cells: HCT-116
# T2 sequence (P19793 227-458 limits assumed): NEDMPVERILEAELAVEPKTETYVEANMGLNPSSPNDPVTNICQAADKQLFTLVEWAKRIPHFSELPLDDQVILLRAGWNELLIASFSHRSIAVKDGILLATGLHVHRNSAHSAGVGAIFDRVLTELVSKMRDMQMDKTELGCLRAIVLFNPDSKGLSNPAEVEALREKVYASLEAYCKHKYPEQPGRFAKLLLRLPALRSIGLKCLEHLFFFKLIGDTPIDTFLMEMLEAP
# Method: FIGS. 2A and 2B are graphs of relative CAT activity. (TREpal)2-tk-CAT and RXRα were transiently transfected into CV-1 cells. […] CAT activity was determined. […] Error bars represent SEM. FIG. 2C is a graph of relative LUC activity. pBind-RXRα-LBD and pG5luc were transiently transfected into HCT-116 cells. […] Luciferase activity was determined. […] HCT-116 cells seeded in 24-well plates were transiently transfected with 50 ng pG5luc, 25 ng pBind-RXRα-LBD. […] Cells were washed, lysed and assayed by using the Dual-Luciferase Reporter Assay System (Promega). Transfection efficiency was normalized to Renilla luciferase activity.
# [6] = molecular target: T3, RXRα (Homo sapiens, UniProt P19793); test: CAT reporter assay with (TREpal)2-tk-CAT and RXRα transfected into CV-1 cells; type: cell-based; conditions: 9-cis-RA 10^-7 M, BI-1003 1 μM
# T3 construct: expressed in transfected cells; host or cells: CV-1 African green monkey kidney cells
# T3 sequence (P19793 1-462): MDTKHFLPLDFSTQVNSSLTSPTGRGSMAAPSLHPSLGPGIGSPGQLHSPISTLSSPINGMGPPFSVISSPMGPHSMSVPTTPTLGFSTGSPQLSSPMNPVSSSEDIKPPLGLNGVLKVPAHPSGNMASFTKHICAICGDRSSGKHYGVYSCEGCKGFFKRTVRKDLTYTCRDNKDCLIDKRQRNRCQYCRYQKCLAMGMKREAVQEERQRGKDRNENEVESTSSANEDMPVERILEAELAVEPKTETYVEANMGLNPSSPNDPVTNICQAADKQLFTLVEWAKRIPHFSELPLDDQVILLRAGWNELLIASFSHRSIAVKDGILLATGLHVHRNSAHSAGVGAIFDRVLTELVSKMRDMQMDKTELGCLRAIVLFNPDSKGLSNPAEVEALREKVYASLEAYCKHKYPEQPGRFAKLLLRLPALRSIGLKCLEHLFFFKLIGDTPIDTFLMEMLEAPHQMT
# Method: FIGS. 2A and 2B are graphs of relative CAT activity. (TREpal)2-tk-CAT and RXRα were transiently transfected into CV-1 cells. […] CAT activity was determined. […] Error bars represent SEM. FIG. 2C is a graph of relative LUC activity. pBind-RXRα-LBD and pG5luc were transiently transfected into HCT-116 cells. […] Luciferase activity was determined.
# [7] = tested on: TNFα-induced AKT activation in A549 lung cancer cells; test: Inhibition of TNFα-induced AKT activation, immunoblotting; type: cell-based, human; conditions: pretreated 1 h, TNFα 10 ng/mL 30 min
# Method: (§1) Cell viability was measured by the MTT colorimetric assay. FIG. 3B depicts inhibition of TNFα-induced AKT activation. […] Phosphorylated AKT and total AKT were analyzed by immunoblotting.
# ZR-75-1 and MB231 breast cancer cells (FIG. 8). A unique property of Sulindac and other compounds are their ability to inhibit TNFα-induced AKT activation (Zhou et al, 2010). […] Similar results were obtained in other cancer cell lines (FIG. 9).
# Cells were lysed and equal amounts of the lysates were electrophoresed on 10% SDS-PAGE gels and transferred onto PVDF membranes (Millipore). The membranes were blocked with 5% skimmed milk in TBST [50 mM Tris-HCl (pH7.4), 150 mM NaCl and 0.1% Tween20] for 1 h, then incubated with primary antibodies and secondary antibodies and detected using ECL system (Thermo). The dilutions of the primary antibodies were anti-RXRα (AN 197, Santa Cruz) in 1:1000, anti-PARP(H-250. Santa Cruz) in 1:3000, anti-p85α (Millipore) in 1:1000, anti-p-AKT (D9E, Cell Signaling Technology) in 1:1000, anti-AKT 1/2/3 (H-136, Santa Cruz) in 1:1000, anti-β-actin (Sigma) in 1:5000, anti-c-myc (9E10, Santa Cruz), anti-Flag (FI 804, Sigma).
# [8] = tested on: A549 lung cancer, PC3 prostate cancer, ZR-75-1 and MB231 breast cancer cells; test: MTT cell viability / growth inhibition assay; type: cell-based, human; conditions: 48 h
# Method: as §1
# FIGS. 8A-C are a series of graphs depicting that sulindac and other compounds induce apoptosis of cancer cells. FIG. 8A is a PC3 prostate cancer cell line. FIG. 8B is a ZR-75-1 breast cancer cell line, and FIG. 8C is a MDA-MB-231 breast cancer cell line. Each were treated with the indicated concentration of Sulindac or other compounds for 48 h. Cell viability was determined by the MTT assay.
# Confluent cells cultured in 96-well dishes were treated with various concentrations of compounds for 48 h. The cells were then incubated with 2 mg/mL (3-(4,5-Dimethylthiazol-2-yl)-2,5-diphenyltetrazolium bromide (MTT) for 4 h at 37° C. MTT solution was then aspirated and formazan in cells was instantly dissolved by addition of 150 μL DMSO each well. Absorbance was measured at 570 nm.
Compound,"PARP cleavage, combination with TNFα [2]",apparent toxic effects such as loss of body weight [4],reduction of tumor weight [4] [%],TNFα-induced AKT activation [7],inhibition of growth of cancer cells compared to Sulindac [8],other results
"CC1=C(CC(=O)O)c2cc(F)ccc2/C1=C\c1ccc([S+](C)[O-])cc1 (stereo not shown) [Sulindac, reference compound]",significant induction of PARP cleavage,,,,,"concentration normally used to achieve anti-cancer effects [1]: About 100 μM; PARP cleavage, compound alone ([2]; 40 μM, 1% FBS): slightly induced PARP cleavage"
"CC1=C(CC(=O)O)c2cc(F)ccc2/C1=C\c1ccc(C(C)C)cc1 [Compound K-80003, reference compound]",,did not show any apparent toxic effects,54.84,,,competition with [3H]9-cis-RA for binding to the LBP of RXRα [3]: competed well
CCCOc1cc2c(cc1C(=C1CC1)c1ccc(C(=O)O)cc1)C(C)(C)CCC2(C)C [BI-1003],,,,,,inhibition of 9-cis-RA-induced Ga14 reporter activation [5]: inhibited; inhibition of 9-cis-RA-induced TREpal reporter activity [6]: inhibited
"CC1=C(CCc2nnn[nH]2)c2cc(F)ccc2/C1=C\c1ccc(C(C)C)cc1 [Compound K-8012, (Z)-5-(2-(5-Fluoro-1-(4-isopropylbenzylidene)-2-methyl-1H-inden-3-yl)ethyl)-1H-tetrazole]",could convert TNFα signaling from survival to death,,,suppressed in a dose dependent manner,much more effective,
"CC1=C(CCc2nnn[nH]2)c2ccccc2/C1=C\c1ccc(C(C)C)cc1 [Compound K-8008, (Z)-5-(2-(1-(4-iso-Propylbenzylidene)-2-methyl-1H-inden-3-yl)ethyl)-1H-tetrazole]",could convert TNFα signaling from survival to death,did not show any apparent toxic effects,61.23,suppressed in a dose dependent manner,much more effective,"apoptosis in tumor sections, TUNEL staining ([4]; 20 mg/kg): induction of apoptosis; growth of HepG2 tumor ([4]; 20 mg/kg intraperitoneally daily): inhibited the growth of HepG2 tumor in a time dependent manner; AKT activation (p-AKT) in tumors, Western blotting ([4]; three tumors, 20 mg/kg): reduction of AKT activation"
